The results in this text go back to US20240217978A1 (CHONG KUN DANG PHARMACEUTICAL CORP., priority 2021, published 2024).

The term IC50 denotes the concentration that gives 50% inhibition. Lower therefore signals inhibition by little substance.

Chain of human adenosine A2a receptor (P29274 whole entry): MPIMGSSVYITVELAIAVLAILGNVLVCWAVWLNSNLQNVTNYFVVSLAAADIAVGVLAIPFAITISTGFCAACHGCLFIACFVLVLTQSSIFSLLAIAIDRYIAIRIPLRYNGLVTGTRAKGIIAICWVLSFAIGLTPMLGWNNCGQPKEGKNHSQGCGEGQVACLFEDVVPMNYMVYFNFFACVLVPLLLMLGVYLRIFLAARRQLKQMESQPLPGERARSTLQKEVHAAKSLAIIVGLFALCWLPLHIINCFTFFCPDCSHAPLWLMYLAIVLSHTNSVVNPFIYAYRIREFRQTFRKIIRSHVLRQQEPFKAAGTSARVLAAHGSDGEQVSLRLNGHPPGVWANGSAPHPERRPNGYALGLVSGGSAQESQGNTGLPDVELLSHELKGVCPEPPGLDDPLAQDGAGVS

This assay deals with human adenosine A2a receptor (Homo sapiens (Human), UniProt P29274). Briefly: A2a receptor binding affinity, [3H]-NECA radioligand binding test. The following applies: [3H]-NECA 37 nM; membrane from HEK-293 cells transfected with human adenosine A2a receptor. The essentials:
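IC50 values (μM) come from displacement of [3H]-NECA, used at 37 nM final, on human A2a receptor membranes from transfected HEK-293 cells. Incubation lasted one hour at room temperature in Tris/MgCl2/EDTA buffer, pH 7.4; filter-bound radioactivity was counted by scintillation.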
For `Nc1nc(N2CCC[C@@H]2C(=O)N2CCN(Cc3ccc(F)cc3F)CC2)nc2nc(-c3ccco3)nn12` [Example 96, (R)-(1-(7-amino-2-(furan-2-yl)-[1,2,4]triazolo[1,5-a][1,3,5]triazin-5-yl)pyrrolidin-2-yl)(4-(2,4-difluorobenzyl)piperazin-1-yl)methanone], the 50% inhibitory concentration (IC50) was 1630 nM. The result for `Cc1ccc(-c2nc3nc(N4CCC[C@H]4C(=O)N4CCN(C5CCCCC5)CC4)nc(N)n3n2)o1` [Example 84, (S)-(1-(7-amino-2-(5-methylfuran-2-yl)-[1,2,4]triazolo[1,5-a][1,3,5]triazin-5-yl)pyrrolidin-2-yl)(4-cyclohexylpiperazin-1-yl)methanone] reads 14 nM; that for `Nc1nc(N2CCC[C@H]2C(=O)N2CC(Cc3ccccc3)C2)nc2nc(-c3ccco3)nn12` [Example 113, (S)-(1-(7-amino-2-(furan-2-yl)-[1,2,4]triazolo[1,5-a][1,3,5]triazin-5-yl)pyrrolidin-2-yl)(3-benzylazetidin-1-yl)methanone], 9 nM. `Nc1nc(N2CCC[C@H]2C(=O)N2CCN(S(=O)(=O)CC3CC3)CC2)nc2nc(-c3ccco3)nn12` [Example 68, (S)-(1-(7-amino-2-(furan-2-yl)-[1,2,4]triazolo[1,5-a][1,3,5]triazin-5-yl)pyrrolidin-2-yl)(4-((cyclopropylmethyl)sulfonyl)piperazin-1-yl)methanone] registered an IC50 of 9 nM. `COCCN1CCN(C(=O)[C@@H](Nc2nc(N)n3nc(-c4ccco4)nc3n2)C2CCCCC2)CC1` [Example 188, (S)-2-((7-amino-2-(furan-2-yl)-[1,2,4]triazolo[1,5-a][1,3,5]triazin-5-yl)amino)-2-cyclohexyl-1-(4-(2-methoxyethyl)piperazin-1-yl)ethan-1-one] gave a 50% inhibitory concentration (IC50) of 10 nM. Take `Nc1nc(N2CCC[C@H]2C(=O)N2CCN(c3ccc(F)cc3F)CC2)nc2nc(-c3nccs3)nn12` [Example 67, (S)-(1-(7-amino-2-(thiazol-2-yl)-[1,2,4]triazolo[1,5-a][1,3,5]triazin-5-yl)pyrrolidin-2-yl)(4-(2,4-difluorophenyl)piperazin-1-yl)methanone]: the IC50 was 3 nM. In turn, `CCOC(=O)c1ccc(N2CCN(C(=O)[C@@H]3CCCN3c3nc(N)n4nc(-c5ccco5)nc4n3)CC2)cc1` [Example 123, Ethyl 4-(4-((7-amino-2-(furan-2-yl)-[1,2,4]triazolo[1,5-a][1,3,5]triazin-5-yl)-L-prolyl)piperazin-1-yl)benzoate] returned a half-maximal inhibitory concentration (IC50) of 0.5 nM.

As to `Nc1nc(N2CC[C@H]2C(=O)N2CCC(C3CCN(CC(F)(F)C(F)(F)F)CC3)CC2)nc2nc(-c3ccco3)nn12` [Example 326, (S)-(1-(7-amino-2-(furan-2-yl)-[1,2,4]triazolo[1,5-a][1,3,5]triazin-5-yl)azetidin-2-yl)(1′-(2,2,3,3,3-pentafluoropropyl)-[4,4′-bipiperidin]-1-yl)methanone], the IC50 was 0.8 nM. With `COCCN1CCN(C(=O)[C@@H]2CCCN2c2nc(N)n3nc(-c4ccco4)nc3n2)CC1=O` [Example 246, 4-((7-amino-2-(furan-2-yl)-[1,2,4]triazolo[1,5-a][1,3,5]triazin-5-yl)-L-prolyl)-1-(2-methoxyethyl)piperazin-2-one] the figure was 3 nM. With `Nc1nc(N[C@H](C(=O)N2CCN(c3ncccn3)CC2)C2CCOCC2)nc2nc(-c3ccco3)nn12` [Example 241, (S)-2-((7-amino-2-(furan-2-yl)-[1,2,4]triazolo[1,5-a][1,3,5]triazin-5-yl)amino)-1-(4-(pyrimidin-2-yl)piperazin-1-yl)-2-(tetrahydro-2H-pyran-4-yl)ethan-1-one] the figure was 1 nM; with `Nc1nc(N2CCC[C@H]2C(=O)N2CCN(c3cnccn3)CC2)nc2nc(-c3ccco3)nn12` [Example 126, (S)-(1-(7-amino-2-(furan-2-yl)-[1,2,4]triazolo[1,5-a][1,3,5]triazin-5-yl)pyrrolidin-2-yl)(4-(pyrazin-2-yl)piperazin-1-yl)methanone], 9 nM; with `Nc1nc(N2CCC[C@H]2C(=O)N2CCN(c3ccccc3)CC2)nc2nc(-c3ccco3)nn12` [Example 151, (S)-(1-(7-amino-2-(furan-2-yl)-[1,2,4]triazolo[1,5-a][1,3,5]triazin-5-yl)pyrrolidin-2-yl)(4-phenylpiperazin-1-yl)methanone], 13 nM. The result for `Nc1nc(N2CCC[C@H]2C(=O)N2CCC(C3CCN(CC(F)F)CC3)CC2)cc2nc(-c3ccco3)nn12` [Example 393, (S)-(1-(5-amino-2-(furan-2-yl)-[1,2,4]triazolo[1,5-c]pyrimidin-7-yl)pyrrolidin-2-yl)(1′-(2,2-difluoroethyl)-[4,4′-bipiperidin]-1-yl)methanone] reads 13 nM. The compound `CC(C)(O)CC(=O)N1CCN(C(=O)[C@@H]2CCCN2c2cc3nc(-c4ccco4)nn3c(N)n2)CC1` [Example 292, 1-(4-((5-amino-2-(furan-2-yl)-[1,2,4]triazolo[1,5-c]pyrimidin-7-yl)-L-prolyl)piperazin-1-yl)-3-hydroxy-3-methylbutan-1-one] came in with a half-maximal inhibitory concentration (IC50) of 21 nM. `Nc1nc(N2CCC[C@H]2C(=O)N2CCC(C3CCN(CC(F)(F)C(F)F)CC3)CC2)nc2nc(-c3ccco3)nn12` [Example 289, (S)-(1-(7-amino-2-(furan-2-yl)-[1,2,4]triazolo[1,5-a][1,3,5]triazin-5-yl)pyrrolidin-2-yl)(1′-(2,2,3,3-tetrafluoropropyl)-[4,4′-bipiperidin]-1-yl)methanone] returned a 50% inhibitory concentration (IC50) of 9 nM. As to `Cc1ccc(-c2nc3nc(N4CC[C@H]4C(=O)N4CCN(CC(C)(F)F)CC4)nc(N)n3n2)o1` [Example 314, (S)-(1-(7-amino-2-(5-methylfuran-2-yl)-[1,2,4]triazolo[1,5-a][1,3,5]triazin-5-yl)azetidin-2-yl)(4-(2,2-difluoropropyl)piperazin-1-yl)methanone], the IC50 worked out at 19 nM. The result for `Cc1ccc(-c2nc3nc(N4CC[C@H]4C(=O)N4CCN(Cc5ccccc5)CC4)nc(N)n3n2)o1` [Example 218, (S)-(1-(7-amino-2-(5-methylfuran-2-yl)-[1,2,4]triazolo[1,5-a][1,3,5]triazin-5-yl)azetidin-2-yl)(4-benzylpiperazin-1-yl)methanone] reads 10 nM. Consider `Cc1ccc(-c2nc3nc(N4CC[C@H]4C(=O)N4CCN(CC(F)(F)F)CC4)nc(N)n3n2)o1` [Example 220, (S)-(1-(7-amino-2-(5-methylfuran-2-yl)-[1,2,4]triazolo[1,5-a][1,3,5]triazin-5-yl)azetidin-2-yl)(4-(2,2,2-trifluoroethyl)piperazin-1-yl)methanone], for which the half-inhibitory concentration (IC50) came to 15 nM. The result for `CN(CC(F)(F)F)C1CCN(C(=O)[C@@H]2CCCN2c2nc(N)n3nc(-c4ccco4)nc3n2)CC1` [Example 337, (S)-(1-(7-amino-2-(furan-2-yl)-[1,2,4]triazolo[1,5-a][1,3,5]triazin-5-yl)pyrrolidin-2-yl)(4-(methyl(2,2,2-trifluoroethyl)amino)piperidin-1-yl)methanone] reads 9 nM; that for `Nc1nc(N2CCC[C@H]2C(=O)N2CC3CCC(C2)N3C(=O)c2ccccc2)nc2nc(-c3ccco3)nn12` [Example 157, (3-((7-amino-2-(furan-2-yl)-[1,2,4]triazolo[1,5-a][1,3,5]triazin-5-yl)-L-prolyl)-3,8-diazabicyclo[3.2.1]octan-8-yl)(phenyl)methanone], 6 nM. Regarding `Nc1nc(N2CC[C@H]2C(=O)N2CCN(CCCC(F)(F)F)CC2)nc2nc(-c3ccco3)nn12` [Example 264, (S)-(1-(7-amino-2-(furan-2-yl)-[1,2,4]triazolo[1,5-a][1,3,5]triazin-5-yl)azetidin-2-yl)(4-(4,4,4-trifluorobutyl)piperazin-1-yl)methanone], the IC50 came to 10 nM. With `Nc1nc(N2CCC[C@H]2C(=O)N2CCN(CCCC(F)(F)F)CC2)nc2nc(-c3ccco3)nn12` [Example 239, (S)-(1-(7-amino-2-(furan-2-yl)-[1,2,4]triazolo[1,5-a][1,3,5]triazin-5-yl)pyrrolidin-2-yl)(4-(4,4,4-trifluorobutyl)piperazin-1-yl) methanone], the half-inhibitory concentration (IC50) amounted to 6 nM. As for `Nc1nc(N2CCC[C@H]2C(=O)N2CCN(CC(F)(F)C(F)(F)F)CC2)cc2nc(-c3ccco3)nn12` [Example 296, (S)-(1-(5-amino-2-(furan-2-yl)-[1,2,4]triazolo[1,5-c]pyrimidin-7-yl)pyrrolidin-2-yl)(4-(2,2,3,3,3-pentafluoropropyl)piperazin-1-yl)methanone], the IC50 was 0.8 nM.
